The results in this text go back to patent US8362000B2, “Azetidinyl diamides as monoacylglycerol lipase inhibitors” (Janssen Pharmaceutica NV, priority 2009, dated 2013).

Each structure is given as a SMILES string. Where a chain is given by its changes, count along the chain named. Read-outs that look alike come from different tables or passages of the source.

The target of one experiment is T1, mutant MGL (Homo sapiens, UniProt Q99685, L169S/L176S).
T1 sequence (Q99685 1-303 L169S/L176S): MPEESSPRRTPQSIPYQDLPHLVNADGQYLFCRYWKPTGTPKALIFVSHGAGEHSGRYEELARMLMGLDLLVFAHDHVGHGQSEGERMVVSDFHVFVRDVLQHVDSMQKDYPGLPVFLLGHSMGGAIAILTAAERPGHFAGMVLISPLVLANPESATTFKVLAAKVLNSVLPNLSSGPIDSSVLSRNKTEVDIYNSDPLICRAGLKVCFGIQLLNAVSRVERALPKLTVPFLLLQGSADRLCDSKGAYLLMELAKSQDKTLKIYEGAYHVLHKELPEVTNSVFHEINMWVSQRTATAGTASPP
Kind of experiment: MGL ThermoFluor assay - mutant. Type of experiment: binding. In general terms: Differential scanning fluorimetry follows unfolding on heating by fluorescence.

Experiment [1] has as its target T2, purified wild type MGL (wt-MGLL 6H-11-313) (Homo sapiens, UniProt Q99685).
T2 sequence (Q99685 1-303): T1 sequence (Q99685 1-303 L169S/L176S) with S169L, S176L

[2] abbreviates: compound concentration measured by qNMR, read-out: MGL mutant ThermoFluor qKd (using qNMR conc.).
The mark [3] stands for this setting: ThermoFluor, compound concentration measured by qNMR, read-out: MGL mutant ThermoFluor qKd (μM) (using qNMR conc.).
Setting [4] is: ThermoFluor concentration-response, read-out: MGL mutant ThermoFluor Kd.
[5] abbreviates: ThermoFluor thermal stability binding assay, read-out: MGL mutant ThermoFluor Kd.
Setting [6] is: ThermoFluor, compound concentration measured by qNMR, read-out: MGL mutant ThermoFluor qKd (using qNMR conc.).

On to `O=C(c1cnc2c(ccn2Cc2ccc(F)cc2)c1)N1CC(N2CCN(C(=O)c3nccs3)CC2)C1` [Cpd 1043, 1-(4-Fluorobenzyl)-5-({3-[4-(1,3-thiazol-2-ylcarbonyl)piperazin-1-yl]azetidin-1-yl}carbonyl)-1H-pyrrolo[2,3-b]pyridine], for which the Kd at mutant MGL (setting [2]) is 0.055 µM. Inhibition in experiment [1] was half-maximal at 16 nM (IC50).

Turning to `O=C(CN1C(=O)c2ccccc2S1(=O)=O)N1CC(N2CCN(C(=O)c3nccs3)CC2)C1` [Cpd 1432], the Kd at mutant MGL (setting [3]) is over 28.4 µM. Besides, the IC50 (as a rule, the concentration that gives 50% inhibition) in experiment [1] is over 16700 nM.

For the compound `O=C(c1ccc2c(c1)[nH]c(=O)n2CCC(F)(F)F)N1CC(N2CCN(C(=O)c3nccs3)CC2)C1` [Cpd 938], the Kd at mutant MGL (setting [4]) was found to be 0.091 µM. Moreover, in experiment [1], it took 698 nM to reach half-maximal inhibition (IC50).

As to `O=C(c1nccs1)N1CCN(C2CN(C(=O)c3ncoc3-c3ccc(Cl)cc3)C2)CC1` [Cpd 1473], the Kd on mutant MGL (setting [5]) was found to be 6.67 µM. This compound also came in with an IC50 in experiment [1] of over 16700 nM.

`O=C(c1ccc(-c2cccc(C(F)(F)F)c2)cc1)N1CC(N2CCN(C(=O)c3ccon3)CC2)C1` [Cpd 1145]: at mutant MGL (setting [3]), the Kd is 0.061 µM. Moreover, the IC50 in experiment [1] was determined as 31 nM.

`Cc1nc2cc(C(=O)N3CC(N4CCN(C(=O)c5cscn5)CC4)C3)ccc2n1CCC(F)(F)F` [Cpd 866]: the Kd on mutant MGL (setting [2]) stood at 0.824 µM. In addition, the IC50 in experiment [1] is 10300 nM.

In the case of `O=C(c1ccccc1)N1CCN(C2CN(C(=O)c3ccc4c(-c5ccc(C(F)(F)F)cc5)ncnc4c3)C2)CC1` [Cpd 597], at mutant MGL (setting [4]), the Kd was 0.153 µM. In experiment [1], this compound came in with an IC50 of 600 nM.

Take `O=C(c1ccccc1)N1CCN(C2CN(C(=O)c3ccc(-c4cccc(C(F)(F)F)c4)cc3Cl)C2)CC1` [Cpd 252, 1-(1-{[3-Chloro-3′-(trifluoromethyl)biphenyl-4-yl]carbonyl}azetidin-3-yl)-4-(phenylcarbonyl)piperazine]: at mutant MGL (setting [5]), the Kd worked out at 0.05 µM. Half-maximal inhibition in experiment [1] (IC50) was put at 80.8 nM.

As for `O=C(c1ccccc1)N1CCN(C2CN(C(=O)c3cccc4[nH]c(-c5ccc(Cl)cc5)nc34)C2)CC1` [Cpd 607], the Kd on mutant MGL (setting [5]) was 1 µM. In experiment [1], this compound registered an IC50 of 2900 nM.

Turning to `O=C(c1ccc2c(c1)ncn2CCC(F)(F)F)N1CC(N2CCN(C(=O)c3nccs3)CC2)C1` [Cpd 780], at mutant MGL (setting [2]), the Kd came out at 0.128 µM. The IC50 in experiment [1] was determined as 978 nM.

For `O=C(c1ccc(-c2ccccc2)cc1)N1CCN(C2CN(C(=O)c3cscn3)C2)C2(CC2)C1` [Cpd 1286], the Kd at mutant MGL (setting [5]) was determined as 0.032 µM. This compound returned an IC50 in experiment [1] of 2420 nM.

Turning to `CC1(C)C=C(c2ccc(C(=O)N3CC(N4CCN(C(=O)c5nccs5)CC4)C3)cc2)CC(C)(C)O1` [Cpd 706], at mutant MGL (setting [4]), the Kd was 0.001 µM. Further, half-maximal inhibition in experiment [1] (IC50) was put at 103 nM.

In the case of `O=C(c1ccc2c(c1)C(Cc1cccc(C(F)(F)F)c1)(Cc1cccc(C(F)(F)F)c1)C(=O)N2)N1CC(N2CCN(C(=O)c3nccs3)CC2)C1` [Cpd 992], the Kd on mutant MGL (setting [4]) was determined as 0.561 µM. In experiment [1], it took 7760 nM to reach half-maximal inhibition (IC50).

`Cn1cc(C(=O)N2CC(N3CCN(C(=O)c4nccs4)CC3)C2)c2ccccc21` [Cpd 838]: the Kd on mutant MGL (setting [4]) turned out to be 0.978 µM. Besides, in experiment [1], the IC50 was determined as 5110 nM.

As for `O=C(c1ccc2c(c1)[nH]c(=O)n2CC(F)(F)F)N1CC(N2CCN(C(=O)c3nccs3)CC2)C1` [Cpd 937], the Kd on mutant MGL (setting [4]) came out at 0.096 µM. In experiment [1], the IC50 was found to be 250 nM.

In the case of `Cc1ccc2c(C(F)(F)F)c(C(=O)N3CC(N4CCN(C(=O)c5nccs5)CC4)C3)sc2c1` [Cpd 707, 1-(1-{[6-Methyl-3-(trifluoromethyl)-1-benzothiophen-2-yl]carbonyl}azetidin-3-yl)-4-(1,3-thiazol-2-ylcarbonyl)piperazine], the Kd on mutant MGL (setting [4]) stood at 0.002 µM. The midpoint of inhibition in experiment [1], the IC50, lay at 105 nM.

On to `O=C(c1ccc(-c2ccccc2)cc1)N1CC(N2CCN(C(=O)c3c[nH]c4ccccc34)CC2)C1` [Cpd 1308], for which the Kd at mutant MGL (setting [5]) was 2.06 µM. Further, in experiment [1], the IC50 came out at 9280 nM.

As for `O=C(c1ccc(-c2ccccc2)cc1)N1CC(N2CCN(C(=O)c3nccs3)CC2C(F)(F)F)C1` (stereo not shown) [Cpd 1306, 1-[1-(Biphenyl-4-ylcarbonyl)azetidin-3-yl]-4-(1,3-thiazol-2-ylcarbonyl)-2-(trifluoromethyl)piperazine], the Kd at mutant MGL (setting [3]) was determined as 12.2 µM. This compound also registered an IC50 in experiment [1] of 8150 nM.

Consider `O=C(c1ccc2ccn(Cc3ccncc3)c2c1)N1CC(N2CCN(C(=O)c3nccs3)CC2)C1` [Cpd 1047], for which, on mutant MGL (setting [2]), the Kd turned out to be 0.471 µM. Besides, in experiment [1], the IC50 came to 4630 nM.

For the compound `O=C(c1ccc2c(c1)[nH]c(=O)n2-c1ccc(F)c(F)c1)N1CC(N2CCN(C(=O)c3cscn3)CC2)C1` [Cpd 941], the Kd at mutant MGL (setting [4]) was 0.389 µM. Moreover, in experiment [1], the IC50 was determined as 1370 nM.

On to `O=C(c1nccs1)N1CCN(C2CN(C(=O)c3sc4cc(C(F)(F)F)ccc4c3Cl)C2)C(C(F)(F)F)C1` (stereo not shown) [Cpd 778, 1-(1-{[3-Chloro-6-(trifluoromethyl)-1-benzothiophen-2-yl]carbonyl}azetidin-3-yl)-4-(1,3-thiazol-2-ylcarbonyl)-2-(trifluoromethyl)piperazine], for which the Kd on mutant MGL (setting [3]) is 1.2 µM. In addition, half-maximal inhibition in experiment [1] (IC50) was put at 933 nM.

Consider `O=C(c1ccc2cnn(Cc3ccc(F)cc3)c2c1)N1CC(N2CCN(C(=O)c3nccs3)CC2)C1` [Cpd 1051, 1-(4-Fluorobenzyl)-6-({3-[4-(1,3-thiazol-2-ylcarbonyl)piperazin-1-yl]azetidin-1-yl}carbonyl)-1H-indazole], for which the Kd on mutant MGL (setting [2]) was 0.175 µM. The IC50 in experiment [1] came to 128 nM.

On to `COc1cccc2c(C)c(C(=O)N3CC(N4CCN(C(=O)c5ccccc5)CC4)C3)[nH]c12` [Cpd 526], for which the Kd at mutant MGL (setting [4]) is 4.98 µM. In addition, the IC50 in experiment [1] came out at 8100 nM.

Regarding `Cc1c(Cc2ccc(C(F)(F)F)cc2)cccc1C(=O)N1CC(N2CCN(C(=O)c3ccc[nH]3)CC2)C1` [Cpd 1013], the Kd at mutant MGL (setting [4]) turned out to be 0.76 µM. It took 161 nM to reach half-maximal inhibition in experiment [1] (IC50).

For the compound `O=C(c1ccccc1)N1CCN(C2CN(C(=O)c3ccc4c(cnn4-c4ccc(C(F)(F)F)cc4)c3)C2)CC1` [Cpd 575, 5-({3-[4-(Phenylcarbonyl)piperazin-1-yl]azetidin-1-yl}carbonyl)-1-[4-(trifluoromethyl)phenyl]-1H-indazole], the Kd at mutant MGL (setting [3]) was 0.083 µM. Also, in experiment [1], the IC50 is 51 nM.

In the case of `O=C(c1ccc2c(cnn2CCc2ccc(F)cc2)c1)N1CC(N2CCN(C(=O)c3nccs3)CC2)C1` [Cpd 1049, 1-[2-(4-Fluorophenyl)ethyl]-5-({3-[4-(1,3-thiazol-2-ylcarbonyl)piperazin-1-yl]azetidin-1-yl}carbonyl)-1H-indazole], the Kd on mutant MGL (setting [2]) was found to be 0.05 µM. Also, the IC50 in experiment [1] is 10 nM.

On to `O=C(c1ccc2c(ccn2-c2cccnc2)c1)N1CC(N2CCN(C(=O)c3nccs3)CC2)C1` [Cpd 1192, 1-Pyridin-3-yl-5-({3-[4-(1,3-thiazol-2-ylcarbonyl)piperazin-1-yl]azetidin-1-yl}carbonyl)-1H-indole], for which the Kd at mutant MGL (setting [6]) is 0.035 µM. The compound also gave an IC50 in experiment [1] of 109 nM.

Take `O=C(c1nccs1)N1CCN(C2CN(C(=O)c3sc4cc(F)ccc4c3C3CC3)C2)CC1` [Cpd 714, 1-{1-[(3-Cyclopropyl-6-fluoro-1-benzothiophen-2-yl)carbonyl]azetidin-3-yl}-4-(1,3-thiazol-2-ylcarbonyl)piperazine]: at mutant MGL (setting [4]), the Kd was determined as 0.005 µM. This compound also displayed an IC50 in experiment [1] of 135 nM.

As to `Cc1nc(-c2ccccc2F)sc1C(=O)N1CC(N2CCN(C(=O)c3cscn3)CC2)C1` [Cpd 1287], the Kd on mutant MGL (setting [4]) stood at 0.495 µM. The same compound had an IC50 in experiment [1] of 2450 nM.

With `O=C(c1ccccc1)N1CCN(C2CN(C(=O)c3ccc4c(cnn4-c4cccc(OC(F)(F)F)c4)c3)C2)CC1` [Cpd 576, 5-({3-[4-(Phenylcarbonyl)piperazin-1-yl]azetidin-1-yl}carbonyl)-1-[3-(trifluoromethoxy)phenyl]-1H-indazole], the Kd at mutant MGL (setting [3]) stood at 0.088 µM. In experiment [1], the IC50 turned out to be 51 nM.

Take `O=C(c1ccc2[nH]ccc2c1)N1CC(N2CCN(C(=O)c3ccc[nH]3)CC2)C1` [Cpd 856]: on mutant MGL (setting [3]), the Kd worked out at 0.855 µM. Further, 8490 nM corresponded to half-maximal inhibition in experiment [1] (IC50).

Regarding `CN(C(=O)Cn1ccc2cc(C(=O)N3CC(N4CCN(C(=O)c5cscn5)CC4)C3)ccc21)c1ccccc1` [Cpd 1032], the Kd on mutant MGL (setting [2]) stood at 1.1 µM. In experiment [1], this compound came in with an IC50 of 3020 nM.

Regarding `O=C(c1ccc2nc(-c3cccc(C(F)(F)F)c3)oc2c1)N1CC(N2CCN(C(=O)c3nccs3)CC2)C1` [Cpd 1158, 6-({3-[4-(1,3-Thiazol-2-ylcarbonyl)piperazin-1-yl]azetidin-1-yl}carbonyl)-2-[3-(trifluoromethyl)phenyl]-1,3-benzoxazole], on mutant MGL (setting [4]), the Kd turned out to be 0.008 µM. This compound also had an IC50 in experiment [1] of 42 nM.

For the compound `O=C(c1ccc2[nH]c(C3CCCCC3)nc2c1)N1CC(N2CCN(C(=O)c3cscn3)CC2)C1` [Cpd 800], the Kd at mutant MGL (setting [4]) amounted to 1.1 µM. Further, in experiment [1], the midpoint of inhibition, the IC50, lay at 1700 nM.

Take `Cc1ccnc(-n2ccc3cc(C(=O)N4CC(N5CCN(C(=O)c6cscn6)CC5)C4)ccc32)c1` [Cpd 1197, 1-(4-Methylpyridin-2-yl)-5-({3-[4-(1,3-thiazol-4-ylcarbonyl)piperazin-1-yl]azetidin-1-yl}carbonyl)-1H-indole]: the Kd at mutant MGL (setting [6]) worked out at 0.065 µM. In experiment [1], the IC50 worked out at 133 nM.
